Results published in article PMC6135396, “Repurposing antimalarial aminoquinolines and related compounds for treatment of retinal neovascularization” (PLoS ONE, 2018).

Assays:
[1] = target: T1, APJ (Homo sapiens, UniProt P35414); experiment: Radioligand competition binding assay, [125I]-Glp65, Nle75, Tyr77-Ap13 on APJ membranes; set-up: purchased Perkin Elmer; conditions: tested as high as 100 μM
T1 sequence (P35414 1-380): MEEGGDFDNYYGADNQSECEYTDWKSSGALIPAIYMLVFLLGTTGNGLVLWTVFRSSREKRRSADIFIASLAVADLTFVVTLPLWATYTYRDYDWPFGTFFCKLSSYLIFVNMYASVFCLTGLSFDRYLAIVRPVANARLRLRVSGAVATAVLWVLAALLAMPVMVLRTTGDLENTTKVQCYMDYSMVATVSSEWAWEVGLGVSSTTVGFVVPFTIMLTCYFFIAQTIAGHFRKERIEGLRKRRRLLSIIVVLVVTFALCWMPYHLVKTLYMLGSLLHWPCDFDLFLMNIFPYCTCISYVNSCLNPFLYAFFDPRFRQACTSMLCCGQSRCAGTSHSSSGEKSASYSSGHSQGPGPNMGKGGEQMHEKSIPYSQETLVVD
Experimental: Soaking buffer (300 μl/well) was added to a 96-well GF/C filter plate (MultiScreen Harvest plate, Millipore) and left to equilibrate at room temperature for 3 h. […] Following incubation, contents were transferred from the OptiPlate to the pre-wet GF/C filter plate, and immediately underwent vacuum filtration. The filter plate was washed five times with 200 μl ice cold wash buffer and left at room temperature overnight to equilibrate. The next day, 20 μl scintillation liquid (Microscint 20, Perkin Elmer) was added and radioactivity quantified using a TopCount NXT (Perkin Elmer) microplate scintillation and luminescence counter. […] The Cheng & Prusoff equation was used to convert IC50 estimates to equilibrium dissociation constants [89].

[2] = target: T1, APJ; experiment: APJ cAMP assay (primary, cAMP HitHunter, CHO-K1-APJ cells); type: cell-based; set-up: host or cells: CHO-K1 (CHO-K1-APJ / CHO-k1-AGTRL1)
Experimental: To identify small-molecule antagonists of the apelin receptor (APJ) we interrogated the SBP compound file of ~425,000 compounds using CHO-k1-AGTRL1 cells overexpressing human APJ and a competitive immunoassay of intracellular cAMP [59]. The compound file was screened at a concentration of 10 μM. For all 333 plates assayed, the average Z-factor = 0.68 and the average S/B = 8.2, indicating a robust assay performance. […] There were 2550 compounds that met this criterion, representing a hit rate of ~0.6%. […] Included in this hit set was a series of aminoquinolines, exemplified by compound 1 (Fig 1B). […] As part of an initial hit-validation strategy, these compounds and three other commercially available analogs were purchased for further testing. The purity and identify of all compounds were confirmed by NMR and LC-MS, and they were subsequently retested in a battery of cell-based assays of APJ function and counter screens. […] (Fig 1D).
PathHunter™ GPCR Arrestin and cAMP Hunter™ cell lines (DiscoveRx Corp., Fremont, CA) were used to assay G-protein-dependent signaling and β-arrestin recruitment to APJ. CHO-K1 cells stably expressing APJ (CHO-K1-APJ) or AT1 (CHO-K1-AT1) with β-arrestin/β-galactosidase enzyme fragment complementation constructs were maintained in HAM's F-12 medium (Hyclone, Logan, UT) supplemented with 10% FBS, 1X Penicillin-Streptomycin-Glutamine (Invitrogen; Carlsbad, CA), 300 μg/ml hygromycin (EMD Biosciences, San Diego, CA), and 800 μg/ml Geneticin (Cellgro, Manassas, VA). Primary Human Retinal Microvascular Endothelial Cells (HRECs) were purchased from Cell Systems (Kirkland, WA) and maintained in Complete Classic Medium with CultureBoost-R™ (Cell Systems). Parent CHO-K1 cells were obtained from ATCC and maintained in HAM’s F-12 medium supplemented with 10% FBS, and1X Penicillin-Streptomycin-Glutamine (Invitrogen; Carlsbad, CA). All cells were incubated at 37°C (5% CO2, 95% relative humidity) and maintained at less than 70% to 80% confluence (approximately 75,000 cells/cm^2). Cell heterologously expressing APJ or AT1 were not used after 10 passages. HRECs were not used in any experiments after five passages.
All reagents unless otherwise specified are components of the cAMP HitHunter (DiscoveRx) kit. Ligand Buffer + 60 μM Forskolin (Cayman Chemical, Ann Arbor, MI) was made fresh on the day of the experiment and used for the dilution of positive and negative controls as well as all peptides. CHO-K1-APJ cells were dispensed into a 1536-well tissue culture microplate (Corning, Corning, NY) using a Multidrop at a seeding density of 1,000 cells/well and returned to the incubator. The next day, the cell culture media was removed and replaced with 15 μl/well of assay buffer (1X HBSS, 10 mM HEPES) containing anti-cAMP antibody (DiscoveRx). […] Plates were incubated at room temperature in the dark for 3 hours prior to chemiluminescence detection on an EnVision (Perkin Elmer) using a counting time of 1 s/well.

CCN(CC)Cc1cc(Nc2ccnc3cc(Cl)ccc23)ccc1O [AQ, amodiaquine] was tested, and the “Displacement of [125I]-Glp65, Nle75, Tyr7-Ap13 binding” value [1] was “did not displace”, the IC50 [2] was 3.45 ± 0.028 µM and the “Mode of APJ antagonism” value ([2]; Ap13 concentration response curves after pre-incubation with AQ, Schild-type analysis) was “non-competitive APJ antagonist”.
